Measured values: US10765654B2, “Methods and compounds for treating cancer” (University of Vermont and State Agricultural College, priority 2011, dated 2020)

Key:
OG35 GSCs = assay: Orthotopic graft in athymic mice, comparison of priming, concurrent and salvage regimens; assay type: in vivo; conditions: OG35 GSC engrafted mice; priming with GTA two days prior to TMZ treatment
Experimental: Cells (2,500 cells in 4 μl) were injected into the right striatum (1 mm anterior, 1.5 mm lateral to bregma, 3.5 mm deep) of adult athymic mice (8-week-old, 25-28 g). GTA (5.8 g/kg plus 10% v/v Ora-Sweet SF® (Paddock Laboratories, Minneapolis, Minn.) was administered intragastrically daily starting on the third post-operative day. TMZ (20 mg/kg) was administered intragastrically in an oral suspension vehicle containing 2.5 mg/ml Povidone K30, 0.013% citric acid, 50% Ora-Plus® (Paddock Laboratories, Minneapolis, Minn.), 50% Ora-Sweet SF® (Paddock Laboratories, Minneapolis, Minn.) on days 5, 7, 9, 11, and 13. Mice receiving the combined GTA/TMZ therapy received the TMZ in the morning (˜7-8 AM) and GTA in the evening (˜6-7 PM).
Orthotopic grafting was performed as described above in Example 6. In addition to the treatments described above, the following treatments were tested: 1) concurrent (GTA and TMZ on days 5, 7, 9, 11, 13, with GTA alone on days 6, 8, 10, 12 and continuous GTA afterwards), and 2) salvage (GTA administered daily after single course of TMZ on days 5, 7, 9, 11, and 13).

[1] = system: OG35 oligodendroglioma GSCs; assay: Orthotopic graft in athymic mice, survival and bioluminescent imaging; assay type: in vivo; conditions: OG35 engrafted mice
Experimental: (§1) Cells (2,500 cells in 4 μl) were injected into the right striatum (1 mm anterior, 1.5 mm lateral to bregma, 3.5 mm deep) of adult athymic mice (8-week-old, 25-28 g). […]
(§2) For in vivo imaging, mice were injected i.p. with 150 mg/kg D-luciferin potassium salt 5 minutes prior to imaging under 1.5% inhaled isoflurane. Peak efflux was determined from an average of 15 bioluminescent acquisitions, with 1 min inter-acquisition intervals, using the auto-exposure setting. Total photon efflux was determined by drawing regions of interest over the emitted region and setting thresholds for each mouse to maximize the number of pixels encircled using Living Image acquisition and analysis software (Version 3.0.3.5, Caliper Life Sciences, Hopkinton, Mass.). […]
(§3) Tumor bioluminescence (rate of flux change over time) and tumor volume were compared using a Mann-Whitney test. Survival was analyzed using Kaplan-Meier curves [Kaplan, EL and P Meier. (1958) J Am Stat Assoc 53:457-481] and comparisons between groups were analyzed with a log-rank test [Peto, R and J Peto. […]

[2] = system: Oli-Neu cells, an oligodendrocyte progenitor cell (OPC) line; assay: Cell cycle profile by propidium iodide staining and flow cytometry; assay type: cell-based, murine; conditions: 0.25% GTA for 24 hours; Sato's medium; compared with GSCs
Experimental: (§4) Cell cycle profiles were visualized by propidium iodide (PI) staining as previously described (Perez-Martinez & Jaworski (2005) J Neurosci 25:4917-29). OG35, OG33 and mouse neural stem cells were grown in stem cell medium (SCM; DMEM/F12, B27, 20 ng/ml ea bFGF & EGF) while the oligodendrocyte progenitor cell line, Oli-neu (Jung et al. (1995) Eur J Neurosci 7:1245-65) was grown in Sato's medium (DMEM supplemented with 100 μg/ml apotransferrin, 5 μg/ml insulin, 60 nM triiodothyronine, 30 nM sodium selenite, 100 μM putrescine, 1% horse serum, and 25 μg/ml G418). […] after 0.25% (v/v) GTA treatment, cells were trypsinized, recovered by centrifugation, re-suspended (10^6 cells/ml) in a low-salt PI solution ([…] polyethylene glycol PEG 8000, […], 180 U/ml RNase A, 0.1% Triton X-100, and 4 mM sodium citrate), and incubated at 37° C. for 20 minutes. After addition of an equal volume of high-salt PI solution ([…] polyethylene glycol PEG 8000, […], 180 U/ml RNase A, 0.1% Triton X-100, and 400 mM NaCl) and incubation at 4° C. for 1 hour, cell cycle profiles were recorded by flow cytometry (BD LSR 11 Flow Cytometer, BD Biosciences; Franklin Lakes, N.J.).

GBM12 astrocytoma GSCs = assay: Orthotopic graft in athymic mice, survival; assay type: in vivo; conditions: GBM 12 engrafted mice; GTA alone 5.8 g/kg daily; p<0.0001
Experimental: as §1, §2, §3

[3] = system: OG35 oligodendroglioma stem cells; assay: Cell cycle profile by propidium iodide staining and flow cytometry; assay type: cell-based, human; conditions: 0.25% GTA in SCM for 24 hours; OG35
Experimental: as §4

[4] = system: OG33 oligodendroglioma stem cells; assay: as above; assay type: cell-based, human; conditions: 0.25% GTA in SCM for 24 hours; OG33
Experimental: as §4

CC(=O)OCC(COC(C)=O)OC(C)=O [GTA, glyceryltriacetate]
Survival versus TMZ alone (OG35 GSCs): increased survival over TMZ alone | Survival ([1]; GTA alone 5.8 g/kg intragastrically daily): did not significantly increase survival | Time to tumor regrowth after termination of TMZ treatment ([1]; GTA with TMZ, bioluminescent imaging): significantly delayed | Cell cycle arrest [2]: less effect | Survival relative to vehicle treated mice (GBM12 astrocytoma GSCs): increased survival relative to vehicle treated mice | Cell cycle arrest [3]: induced cell cycle arrest | Cell cycle arrest [4]: induced cell cycle arrest
